This passage reports IC50 results from US20200069648A1, “HALOALLYLAMINE PYRAZOLE DERIVATIVE INHIBITORS OF LYSYL OXIDASES AND USES THEREOF” (Pharmaxis Ltd., priority 2017, published 2020).

Structures are written as SMILES. Structures can show the parent of a compound that is named as a salt.

In experiment [1] the target is T1, Bovine LOX (Bos taurus, UniProt P33072).
T1 sequence (P33072 170-418): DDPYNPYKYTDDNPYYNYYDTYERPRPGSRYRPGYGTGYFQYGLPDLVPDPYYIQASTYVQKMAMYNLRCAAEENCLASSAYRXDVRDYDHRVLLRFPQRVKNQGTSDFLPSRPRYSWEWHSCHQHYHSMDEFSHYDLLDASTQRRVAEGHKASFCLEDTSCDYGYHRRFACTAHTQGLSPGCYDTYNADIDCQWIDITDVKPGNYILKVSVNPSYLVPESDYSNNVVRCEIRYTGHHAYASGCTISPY
Nature of the experiment: LOX amine oxidase inhibition, peroxidase-coupled Amplex Red assay. The experiment is classed as biochemical. To be noted: 30 min preincubation at 37° C., putrescine substrate. In outline: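 Bovine LOX in 1.2 M urea, 50 mM sodium borate pH 8.2 […]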

For experiment [2], the target named is T2, human recombinant SSAO/VAP-1 (Homo sapiens, UniProt Q16853).
T2 construct: a cloned cDNA template corresponding to residues 34-763 of human SSAO/VAP-1; TEV cleavage site (N); made in house
T2 sequence (Q16853 34-763): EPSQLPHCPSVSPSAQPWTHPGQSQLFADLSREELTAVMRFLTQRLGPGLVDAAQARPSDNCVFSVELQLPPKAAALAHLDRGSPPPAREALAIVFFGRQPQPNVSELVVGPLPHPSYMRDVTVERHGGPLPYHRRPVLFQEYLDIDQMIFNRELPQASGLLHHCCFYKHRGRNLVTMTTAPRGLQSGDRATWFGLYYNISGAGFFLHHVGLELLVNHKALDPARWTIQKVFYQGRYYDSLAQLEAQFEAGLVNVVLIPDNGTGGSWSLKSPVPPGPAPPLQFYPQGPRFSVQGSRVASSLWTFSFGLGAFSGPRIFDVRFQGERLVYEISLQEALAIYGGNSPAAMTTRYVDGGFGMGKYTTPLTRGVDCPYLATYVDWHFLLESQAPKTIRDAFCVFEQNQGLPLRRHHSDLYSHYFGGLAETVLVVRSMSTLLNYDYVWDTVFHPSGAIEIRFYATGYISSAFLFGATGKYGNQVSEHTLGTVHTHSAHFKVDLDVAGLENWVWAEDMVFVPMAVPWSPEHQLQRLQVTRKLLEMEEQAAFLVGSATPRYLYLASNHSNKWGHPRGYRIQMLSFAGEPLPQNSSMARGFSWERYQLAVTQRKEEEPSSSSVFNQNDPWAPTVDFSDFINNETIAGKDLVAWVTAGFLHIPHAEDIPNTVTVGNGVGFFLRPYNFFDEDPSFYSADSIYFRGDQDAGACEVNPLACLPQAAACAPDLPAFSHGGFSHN
Nature of the experiment: Human recombinant SSAO/VAP-1 amine oxidase inhibition. It counts as biochemical. The conditions noted are these: 30 min preincubation at 37° C., 600 μM benzylamine. The method, then:
Method to Determine the Ability of Compounds of Formula I to Inhibit Human Recombinant SSAO/VAP-1
Human recombinant SSAO/VAP-1 amine oxidase activity was determined using the coupled colorimetric method as described for monoamine oxidase, copper-containing amine oxidases and related enzymes (Holt A. and Palcic M., A peroxidase-coupled continuous absorbance plate-reader assay for flavin monoamine oxidases, copper-containing amine oxidases and related enzymes. Nat Protoc 2006; 1: 2498-2505). Briefly, a cloned cDNA template corresponding to residues 34-763 of human SSAO/VAP-1, and incorporating a mouse Ig kappa (κ) signal sequence, N-terminal flag epitope tag and tobacco etch virus (TEV) cleavage site, was assembled in a mammalian expression vector (pLO-CMV) by Geneart AG. This vector containing human SSAO/VAP-1 residues was transfected into CHO-K1 glycosylation mutant cell line, Lec 8. A clone stably expressing human SSAO/VAP-1 was isolated and cultured in large scale. Active human SSAO/VAP-I was purified and recovered using immunoaffinity chromatography. This was used as the source for SSAO/VAP-1 activity. A high-throughput colorimetric assay was developed using either 96 or 384 well format. Briefly, in a standard 96 well plate assay 50 μL of purified human SSAO/VAP-1 (0.25 μg/mL) in 0.1 M sodium phosphate buffer (pH 7.4) was added into each well. Test compounds were dissolved in DMSO and tested in a Concentration Response Curve (CRC) with 4-11 data points, typically in the micromolar or nanomolar range after incubation with human SSAO/VAP-1 for 30 min at 37° C. After 30 min incubation, 50 μL of the reaction mixture containing 600 μM benzylamine (Sigma Aldrich), 120 μM Amplex Red (Sigma Aldrich) and 1.5 U/mL horseradish peroxidase (Sigma Aldrich) prepared in 0.1 M sodium phosphate buffer (pH 7.4) were added to the corresponding well. The fluorescence unit (RFU) was read every 2.5 min for 30 min at 37° C. excitation 565 nm and emission 590 (Optima; BMG labtech). The slope of the kinetics for each well was calculated using MARS data analysis software (BMG labtech) and this value was used to deduce the IC50 value (Dotmatics).

For orientation: IC50 means the midpoint of a concentration-inhibition curve. As to `CCOC(=O)c1nn(C/C(F)=C/CN)c(C)c1Cc1ccc(S(=O)(=O)N(C)C)cc1` [Compound 28, (Z)-ethyl 1-(4-amino-2-fluorobut-2-enyl)-4-(4-(N,N-dimethylsulfamoyl)benzyl)-5-methyl-1H-pyrazole-3-carboxylate hydrochloride], the concentration for half-maximal inhibition (IC50) was below 10 µM in experiment [1] and above 30 µM in experiment [2].
On to `Cc1nn(C/C(F)=C/CN)c(C(=O)N(C)C)c1Cc1ccc(S(=O)(=O)N(C)C)cc1` [Compound 29, (Z)-1-(4-amino-2-fluorobut-2-enyl)-4-(4-(N,N-dimethylsulfamoyl)benzyl)-N,N,3-trimethyl-1H-pyrazole-5-carboxamide hydrochloride], for which the IC50 in experiment [1] is below 10 µM; in experiment [2], above 30 µM.
As to `Cc1nn(C/C(F)=C/CN)c(C(=O)O)c1Cc1ccc(S(=O)(=O)N(C)C)cc1` [Compound 30, (Z)-1-(4-amino-2-fluorobut-2-enyl)-4-(4-(N,N-dimethylsulfamoyl)benzyl)-3-methyl-1H-pyrazole-5-carboxylic acid hydrochloride], the values for the IC50 in experiment [1] and in experiment [2] were above 10 µM and above 30 µM, respectively.
For `Cc1c(Cc2ccc(S(=O)(=O)N(C)C)cc2)c(C(=O)O)nn1C/C(F)=C/CN` [Compound 31, (Z)-1-(4-amino-2-fluorobut-2-enyl)-4-(4-(N,N-dimethylsulfamoyl)benzyl)-5-methyl-1H-pyrazole-3-carboxylic acid hydrochloride] the same measures were above 10 µM and above 30 µM.
Take `Cc1c(Cc2ccc(S(=O)(=O)N(C)C)cc2)c(C(=O)N(C)C)nn1C/C(F)=C/CN` [Compound 32, (Z)-1-(4-amino-2-fluorobut-2-enyl)-4-(4-(N,N-dimethylsulfamoyl)benzyl)-N,N,5-trimethyl-1H-pyrazole-3-carboxamide hydrochloride]: the IC50 in experiment [1] is below 10 µM; in experiment [2], above 30 µM.
Take `CC(C)c1nn(C/C(F)=C/CN)c(C(C)O)c1Cc1ccc(S(=O)(=O)N(C)C)c(Cl)c1` (stereo not drawn) [Compound 59, (Z)-4-((1-(4-amino-2-fluorobut-2-en-1-yl)-5-(1-hydroxyethyl)-3-isopropyl-1H-pyrazol-4-yl)methyl)-2-chloro-N,N-dimethylbenzenesulfonamide hydrochloride]: the IC50 in experiment [1] is above 10 µM; in experiment [2], above 30 µM.
For `CC(C)c1nn(C/C(F)=C/CN)c(C(C)C)c1Cc1ccc(S(=O)(=O)N(C)C)c(Cl)c1` [Compound 60, (Z)-4-((1-(4-amino-2-fluorobut-2-en-1-yl)-3,5-diisopropyl-1H-pyrazol-4-yl)methyl)-2-chloro-N,N-dimethylbenzenesulfonamide hydrochloride] the same measures were below 10 µM and above 30 µM.
Take `Cc1nn(C/C(F)=C/CN)c(C(=O)N(C)C)c1Cc1ccc(S(=O)(=O)N(C)C)c(Cl)c1` [Compound 61, (Z)-1-(4-amino-2-fluorobut-2-en-1-yl)-4-(3-chloro-4-(N,N-dimethylsulfamoyl)benzyl)-N,N,3-trimethyl-1H-pyrazole-5-carboxamide hydrochloride]: the half-inhibitory concentration (IC50) in experiment [1] is above 10 µM; in experiment [2], above 30 µM.
Taken in the same sequence, the figures for `Cc1nn(C/C(F)=C/CN)c(C(=O)NC(C)(C)C)c1Cc1ccc(S(=O)(=O)N(C)C)c(Cl)c1` [Compound 62, (Z)-1-(4-amino-2-fluorobut-2-en-1-yl)-N-(tert-butyl)-4-(3-chloro-4-(N,N-dimethylsulfamoyl)benzyl)-3-methyl-1H-pyrazole-5-carboxamide hydrochloride] were below 10 µM and above 30 µM.
